Activity calls are given as the source filed them. The rule behind the calls is not given here.
Key:
CAL-27 [1] = assay: Induction of apoptosis in cisplatin resistant human CAL-27 cells assessed as caspase 3 activation at 0.3 uM pretreated for 24 hrs followed by cisplatin treatment and further incubated for 18 hrs by Caspase3/7 detection reagent based assay; format: functional, cell-based; conditions: time 42.0 hrs
[2] = molecular target: T1, Histone deacetylase (Homo sapiens) (UniProt Q13547+O15379+Q9UBN7+Q92769+Q9UQL6+Q8WUI4+Q9BY41+Q96DB2+P56524+Q9UKV0+Q969S8); assay: Inhibition of HDAC in human Cal27CisR cells assessed as combination index at 0.4 uM measured in presence of 20 uM cDDP by MTT-based Chou-Talalay method; format: cell-based
[3] = molecular target: T1, Histone deacetylase (Homo sapiens); assay: Inhibition of HDAC in human Cal27CisR cells assessed as combination index at 0.6 uM measured in presence of 20 uM cDDP by MTT-based Chou-Talalay method; format: cell-based
Histone deacetylase [4] = assay: Inhibition of HDAC in human Cal27CisR cells assessed as potentiation of cisplatin-induced cytotoxicity by measuring cisplatin IC50 at 0.3 to 0.5 uM pretreated for 48 hrs followed by cisplatin addition and measured after 72 hrs by MTT assay (reference value: 3.57 uM); format: cell-based
[5] = molecular target: T1, Histone deacetylase (Homo sapiens); assay: Inhibition of HDAC in human CAL-27 cells assessed as combination index at 0.4 uM measured in presence of 5 uM cDDP by MTT-based Chou-Talalay method; format: cell-based
[6] = molecular target: T1, Histone deacetylase (Homo sapiens); assay: Inhibition of HDAC in human CAL-27 cells assessed as combination index at 0.35 uM measured in presence of 5 uM cDDP by MTT-based Chou-Talalay method; format: cell-based
[7] = molecular target: T1, Histone deacetylase (Homo sapiens); assay: Inhibition of HDAC in human Cal27CisR cells assessed as combination index at 0.4 uM measured in presence of 50 uM cDDP by MTT-based Chou-Talalay method; format: cell-based
[8] = molecular target: T1, Histone deacetylase (Homo sapiens); assay: Inhibition of HDAC in human CAL-27 cells assessed as combination index at 0.35 uM measured in presence of 2 uM cDDP by MTT-based Chou-Talalay method; format: cell-based
[9] = molecular target: T1, Histone deacetylase (Homo sapiens); assay: Inhibition of HDAC in human Cal27CisR cells assessed as combination index at 0.4 uM measured in presence of 10 uM cDDP by MTT-based Chou-Talalay method; format: cell-based
[10] = molecular target: T1, Histone deacetylase (Homo sapiens); assay: Inhibition of HDAC in human CAL-27 cells assessed as combination index at 0.3 uM measured in presence of 5 uM cDDP by MTT-based Chou-Talalay method; format: cell-based
[11] = molecular target: T1, Histone deacetylase (Homo sapiens); assay: Inhibition of HDAC in human CAL-27 cells assessed as combination index at 0.3 uM measured in presence of 2 uM cDDP by MTT-based Chou-Talalay method; format: cell-based
CAL-27 [12] = assay: Induction of apoptosis in cisplatin resistant human CAL-27 cells assessed as caspase 7 activation at 0.3 uM pretreated for 24 hrs followed by cisplatin treatment and further incubated for 18 hrs by Caspase3/7 detection reagent based assay; format: functional, cell-based; conditions: time 42.0 hrs
Histone deacetylase [13] = assay: Inhibition of HDAC in human CAL-27 cells assessed as potentiation of cisplatin-induced cytotoxicity by measuring cisplatin IC50 at 0.3 to 0.5 uM pretreated for 48 hrs followed by cisplatin addition and measured after 72 hrs by MTT assay (reference value: 3.57 uM); format: cell-based
[14] = molecular target: T1, Histone deacetylase (Homo sapiens); assay: Inhibition of HDAC in human CAL-27 cells assessed as combination index at 0.2 uM measured in presence of 10 uM cDDP by MTT-based Chou-Talalay method; format: cell-based
[15] = molecular target: T1, Histone deacetylase (Homo sapiens); assay: Inhibition of HDAC in human Cal27CisR cells assessed as combination index at 0.6 uM measured in presence of 10 uM cDDP by MTT-based Chou-Talalay method; format: cell-based
[16] = molecular target: T1, Histone deacetylase (Homo sapiens); assay: Inhibition of HDAC in human Cal27CisR cells assessed as combination index at 0.2 uM measured in presence of 10 uM cDDP by MTT-based Chou-Talalay method; format: cell-based
[17] = molecular target: T1, Histone deacetylase (Homo sapiens); assay: Inhibition of HDAC in human Cal27CisR cells assessed as combination index at 0.1 uM measured in presence of 10 uM cDDP by MTT-based Chou-Talalay method; format: cell-based
[18] = molecular target: T1, Histone deacetylase (Homo sapiens); assay: Inhibition of HDAC in human Cal27CisR cells assessed as combination index at 0.2 uM measured in presence of 20 uM cDDP by MTT-based Chou-Talalay method; format: cell-based
[19] = molecular target: T1, Histone deacetylase (Homo sapiens); assay: Inhibition of HDAC in human CAL-27 cells assessed as combination index at 0.25 uM measured in presence of 10 uM cDDP by MTT-based Chou-Talalay method; format: cell-based
[20] = molecular target: T1, Histone deacetylase (Homo sapiens); assay: Inhibition of HDAC in human CAL-27 cells assessed as combination index at 0.3 uM measured in presence of 10 uM cDDP by MTT-based Chou-Talalay method; format: cell-based
[21] = molecular target: T1, Histone deacetylase (Homo sapiens); assay: Inhibition of HDAC in human CAL-27 cells assessed as combination index at 0.4 uM measured in presence of 2 uM cDDP by MTT-based Chou-Talalay method; format: cell-based
[22] = molecular target: T1, Histone deacetylase (Homo sapiens); assay: Inhibition of HDAC in human CAL-27 cells assessed as potentiation of cisplatin-induced cytotoxicity by measuring fold reduction in cisplatin IC50 at 0.3 to 0.5 uM pretreated for 48 hrs followed by cisplatin addition and measured after 72 hrs by MTT assay relative to cisplatin alone; format: cell-based; conditions: dose 0.3-0.5 µM, time 120.0 hrs
HL-60 = assay: Induction of apoptosis in human HL-60 cells assessed as caspase 3/7 activation at IC75 concentration incubated at 48 hrs; format: functional
Cal27CisR = assay: Induction of apoptosis in human Cal27CisR cells assessed as caspase 3 activation at 0.3 uM pretreated for 24 hrs followed by cisplatin treatment and further incubated for 18 hrs by Caspase3/7 detection reagent based assay; format: functional, cell-based; conditions: time 42.0 hrs
[23] = molecular target: T1, Histone deacetylase (Homo sapiens); assay: Inhibition of HDAC in human CAL-27 cells assessed as combination index at 2 uM measured in presence of 5 uM cDDP by MTT-based Chou-Talalay method; format: cell-based
[24] = molecular target: T1, Histone deacetylase (Homo sapiens); assay: Inhibition of HDAC in human Cal27CisR cells assessed as combination index at 3 uM measured in presence of 20 uM cDDP by MTT-based Chou-Talalay method; format: cell-based
[25] = molecular target: T1, Histone deacetylase (Homo sapiens); assay: Inhibition of HDAC in human CAL-27 cells assessed as potentiation of cisplatin-induced cytotoxicity by measuring fold reduction in cisplatin IC50 at 2 to 3 uM pretreated for 48 hrs followed by cisplatin addition and measured after 72 hrs by MTT assay relative to cisplatin alone; format: cell-based; conditions: dose 2-3 µM, time 120.0 hrs
[26] = molecular target: T1, Histone deacetylase (Homo sapiens); assay: Inhibition of HDAC in human CAL-27 cells assessed as combination index at 2 uM measured in presence of 10 uM cDDP by MTT-based Chou-Talalay method; format: cell-based
[27] = molecular target: T1, Histone deacetylase (Homo sapiens); assay: Inhibition of HDAC in human Cal27CisR cells assessed as combination index at 3 uM measured in presence of 50 uM cDDP by MTT-based Chou-Talalay method; format: cell-based
[28] = molecular target: T1, Histone deacetylase (Homo sapiens); assay: Inhibition of HDAC in human CAL-27 cells assessed as combination index at 1 uM measured in presence of 10 uM cDDP by MTT-based Chou-Talalay method; format: cell-based

CI [2]	CI [3]	CI [5]	CI [6]	CI [7]	CI [8]	CI [9]	CI [10]	CI [11]	CI [14]	CI [15]	CI [16]	CI [17]	CI [18]	CI [19]	CI [20]	Compound	Activity (CAL-27 [1])	IC50 (Histone deacetylase [4]) [nM]	Activity (CAL-27 [12])	IC50 (Histone deacetylase [13]) [nM]	other results
0.26	0.45	0.04	0.05	0.47	0.68	0.11	0.06	0.88	0.04	0.1	0.27	2.62	0.55	0.03	0.02	O=C(CCCCCONC(=O)c1ccc2ccccc2n1)NO	Active	3670	Active	1120	CI [21]: 0.48; Ratio IC50 [22]: 3.2; IC75 (HL-60): 320 nM; Activity (Cal27CisR): Active
0.14	0.24	0.04	0.05	0.47	0.21	0.59	0.06	0.35	0.04	0.19	2.72	4.3	0.43	0.03	0.02	O=C(CCCCCONC(=O)c1cc2ccccc2[nH]1)NO	Active	6590	Active	1310	CI [21]: 0.14; Ratio IC50 [22]: 2.73; Activity (Cal27CisR): Active
–	–	–	–	–	–	–	–	–	–	–	–	–	–	–	–	O=C(CCCCCONC(=O)c1nccc2ccccc12)NO	–	–	–	–	CI [23]: 0.2; CI [24]: 0.21; Ratio IC50 [25]: 3.25; CI [26]: 0.14; CI [27]: 0.39; CI [28]: 0.34

Reference: ChEMBL document CHEMBL4823243, “Synergistic induction of apoptosis in resistant head and neck carcinoma and leukemia by alkoxyamide-based histone deacetylase inhibitors” (Eur J Med Chem, 2021)
